Literature values in patent US20150087671A1, “LOW BURST SUSTAINED RELEASE LIPOPHILIC AND BIOLOGIC AGENT COMPOSITIONS” (Micell Technologies, Inc., priority 2012, published 2015).
Blank lines part the entries; values can stand above or below the compound they belong to.

Tests used:
mTOR = mTOR (Homo sapiens, UniProt P42345)
PI3K/mTOR = settings: read-out: IC50, dual PI3K/mTOR inhibitor (target not specified further)
[1] = test system: phosphorylation of AKT T308

IC50 [1]: 7.5 nM
Compound: COc1ccc(-c2cc3c(C)nc(N)nc3n([C@H]3CC[C@H](OCCO)CC3)c2=O)cn1 [PF-04691502]

bioavailability (Rapamune oral tablets or solution): < 14%
blood concentrations (once daily oral dosing, immunosuppressive dose 2 or 5 mg daily): 6 to 50 ng/mL
Compound: CO[C@H]1C[C@@H]2CC[C@@H](C)[C@@](O)(O2)C(=O)C(=O)N2CCCC[C@H]2C(=O)O[C@H]([C@H](C)C[C@@H]2CC[C@@H](O)[C@H](OC)C2)CC(=O)[C@H](C)/C=C(\C)[C@@H](O)[C@@H](OC)C(=O)[C@H](C)C[C@H](C)/C=C/C=C/C=C/1C [Rapamycin, rapamycin]

IC50 (mTOR): 5 nM
Compound: COC(=O)Nc1ccc(-c2nc(N3CCOCC3)c3cnn(C4CCN(C(=O)OC)CC4)c3n2)cc1 [WYE-354]

IC50 (mTOR): 0.19 nM
Compound: CNC(=O)Nc1ccc(-c2nc(N3CC4CCC(C3)O4)c3cnn(C4CCC5(CC4)OCCO5)c3n2)cc1 [WYE-125132]

The remaining lines, values behind:

Compound: CO[C@H]1C[C@@H]2CC[C@@H](C)[C@@](O)(O2)C(=O)C(=O)N2CCCC[C@H]2C(=O)O[C@H]([C@H](C)C[C@@H]2CC[C@@H](OCCO)[C@H](OC)C2)CC(=O)[C@H](C)/C=C(\C)[C@@H](O)[C@@H](OC)C(=O)[C@H](C)C[C@H](C)/C=C/C=C/C=C/1C [Everolimus, 40-O-(2-Hydroxyethyl)rapamycin]
IC50 (mTOR): 0.63 nM

Compound: COc1ccc(-c2ccc3ncc4c(c3c2)n(-c2ccc(N3CCNCC3)c(C(F)(F)F)c2)c(=O)n4C)cn1 [NVP-BGT226]
IC50 (PI3K/mTOR): 1 nM

Compound: Nc1ncnc2c1c(-c1cnc3[nH]ccc3c1)nn2C1CCCC1 [PP121]
IC50 (PDGFR): 2 nM

Compound: COc1ccc(COc2cc3oc(=O)c4cc(C(C)O)ccc4c3cc2OC)cc1 (stereo not shown) [Palomid 529]
GI50 (NCI-60 cell lines panel): < 35000 nM

Compound: c1cncc(CN2CCC(n3ncc4c(N5CCOCC5)nc(-c5ccc6[nH]ccc6c5)nc43)CC2)c1 [WAY-600]
IC50 (mTOR): 9 nM
